Results taken from EP4678638A1, “NEW E3 UBIQUITIN LIGASE LIGAND, PROTEIN DEGRADATION AGENT AND USE THEREOF” (priority 2023, dated 2024).
pIC50: −log10 of the molar value.

Key:
IRAK4 = molecular target: T1, IRAK4 (Homo sapiens, UniProt Q9NWZ3); assay: Western blot degradation of IRAK4 (hPBMC); assay type: cell-based; details: Table D1
T1 construct: evaluate the effects of the compounds of the present disclosure on the expression of target proteins in cells; endogenous in cells; host or cells: hPBMC
T1 sequence (Q9NWZ3 1-460): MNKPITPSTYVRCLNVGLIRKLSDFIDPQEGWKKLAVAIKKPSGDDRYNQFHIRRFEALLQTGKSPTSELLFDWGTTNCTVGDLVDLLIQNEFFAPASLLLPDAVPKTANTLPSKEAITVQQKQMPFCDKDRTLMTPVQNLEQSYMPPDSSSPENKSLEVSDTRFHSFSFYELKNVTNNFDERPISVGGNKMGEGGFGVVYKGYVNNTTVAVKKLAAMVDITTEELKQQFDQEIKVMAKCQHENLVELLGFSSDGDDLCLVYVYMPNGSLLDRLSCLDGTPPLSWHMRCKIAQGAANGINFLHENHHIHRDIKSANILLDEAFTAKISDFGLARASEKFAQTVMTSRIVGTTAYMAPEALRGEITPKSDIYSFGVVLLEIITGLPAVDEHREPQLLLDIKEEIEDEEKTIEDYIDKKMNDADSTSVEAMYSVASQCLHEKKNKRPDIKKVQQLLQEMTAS
Description: Conventional Western blot assay was performed to evaluate the effects of the compounds of the present disclosure on the expression of target proteins in cells.
(1) Cell Seeding and Protein Harvesting: The selected cells were processed according to the cell seeding procedure and protein harvesting procedure in Table III-2. Table III-2 Cell Seeding and Protein Harvesting Procedures
(2) To the collected supernatant, 5X SDS sample loading buffer was added, followed by denaturation at 95°C for 5 minutes. The denatured samples were then separated by SDS-PAGE electrophoresis on a polyacrylamide gel. Proteins were transferred to a nitrocellulose membrane (0.45 µm NC membrane), blocked with blocking buffer at room temperature for 1 hour, and subjected to antibody incubation and development procedures according to the antibody manufacturer's instructions (Cell Signaling Technology).
Half-Maximal Degradation Concentration value (the drug concentration required for degrading proteins by 50%, abbreviated as DC50) reads method: comparing the grayscale values of Western blot bands from drug-treated samples with those from blank DMSO-treated controls, and identifying the drug concentration range at which the grayscale value is half that of the DMSO-treated control bands.
DC50 values can be calculated using ImageJ software to measure grayscale values of Western blot bands from drug-treated samples. The concentration-response curve is fitted to estimate the drug concentration corresponding to half the grayscale value.
Target protein remaining (%) refers to the percentage of target protein remaining in hPBMC cells after treatment with protein degrader compounds.
Calculation method for target protein remaining (%): Use ImageJ software to measure grayscale values of Western blot bands from drug (protein degrader)-treated samples. The grayscale value of drug-treated bands is divided by that of internal control protein bands, and the resulting quotient is normalized to obtain the relative percentage of remaining target protein after protein degrader treatment.
Target protein degradation rate (%) = 100% - target protein remaining (%).

H1975 = assay: CCK-8 proliferation, NCI-H1975 (H1975); assay type: cell-based, Human; details: Homo sapiens, NCI-H1975; CCK-8; 96 hours; read-out: Inhibitory activity (IC50) on tumor cell proliferation, H1975
In short: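 CCK-8 viability readout; IC50 from growth-inhibition curve fitting. Cells plated, dosed 24h later with a 10-point series, top 10µM, 5-fold steps. Culture at 37°C, 5% CO2.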

MCF7 = assay: CCK-8 proliferation, MCF7 (MCF-7); assay type: cell-based; details: Homo sapiens, MCF7; CCK-8; read-out: Inhibitory activity (IC50) on tumor cell proliferation, MCF7
Description: (§1) The tumor cells used herein were cultured in a cell culture medium listed in table A1 at 37°C in an incubator with 5% CO2. Prior to experimentation, all cell lines used were correctly identified by STR profiling, and tested negative for mycoplasma contamination using a mycoplasma detection kit through routine screenings. Table A1. Tumor cells and cell culture medium used in the present disclosure
(§2) IC50 values of the compounds of the present disclosure (including the compounds in Table 1, and compounds of examples) were measured using the Meilun Cell Counting Kit-8 kit from Dalian Meilun Biotech Co., Ltd. Assay details are as follows: tumor cells were seeded in a 96-well plate at a density listed in Table A2. After 24h, 100 µL of the inoculated cells were treated with 0.5µL of the compounds of the present disclosure (including the compounds in Tables 1 and 2, and compounds of examples) at 10 different successively decreasing concentrations (starting at the highest concentration of 10µM; 5-fold serial dilutions). After the cells were treated with the compounds of the present disclosure for a period of time, the cell viability detection reagent was added to the culture medium for cell viability assessment according to the instructions provided with the CCK-8 kit. […] The growth inhibition of the compounds of the present disclosure on cells was plotted by Prism Graphpad software, and the IC50 values of the compounds of the present disclosure were calculated therefrom. […] Seeding protocol and treatment time for tumor cells

CCRF-CEM = assay: CCK-8 proliferation, CCRF-CEM; assay type: cell-based, Human; details: Homo sapiens, CCRF-CEM; CCK-8; 96 hours; read-out: Inhibitory activity (IC50) on tumor cell proliferation, CCRF-CEM
Description: as §1, §2

MM.1S = assay: CCK-8 proliferation, MM.1S; assay type: cell-based; details: Homo sapiens, MM1.S; CCK-8; 72 hours; read-out: Inhibitory activity (IC50) on tumor cell proliferation, MM1S
Description: as §1, §2

[1] = molecular target: T2, human Cereblon WT GST-tagged protein (Homo sapiens, UniProt Q96SW2); assay: CRBN binding, HTRF (CEREBLON BINDING kit); details: Table II-2, CRBN binding screening, HTRF
T2 construct: purchased CISBIO 64BDCRBNPEH
In short: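 After 3 h at room temperature, emission at 665 and 620 nm was measured in a homogeneous time-resolved fluorescence format. Compounds competed with a Thalidomide-Re probe for GST-tagged wild-type human CRBN, which was labelled with a Eu anti-GST antibody.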

T2 sequence (Q96SW2 whole entry): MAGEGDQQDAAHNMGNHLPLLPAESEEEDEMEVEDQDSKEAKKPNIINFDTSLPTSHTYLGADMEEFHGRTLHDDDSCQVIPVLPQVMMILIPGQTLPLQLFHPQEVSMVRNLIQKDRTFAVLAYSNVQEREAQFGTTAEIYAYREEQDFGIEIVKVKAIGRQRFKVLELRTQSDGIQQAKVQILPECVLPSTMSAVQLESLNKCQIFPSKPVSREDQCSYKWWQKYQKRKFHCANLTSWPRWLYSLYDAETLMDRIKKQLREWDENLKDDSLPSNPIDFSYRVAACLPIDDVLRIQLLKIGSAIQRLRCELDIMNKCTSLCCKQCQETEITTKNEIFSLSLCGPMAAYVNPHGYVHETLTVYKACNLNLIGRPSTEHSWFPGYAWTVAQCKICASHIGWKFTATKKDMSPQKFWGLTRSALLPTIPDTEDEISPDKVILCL

Compound	Degradation of substrate protein IRAK4 (substrate protein remaining %) (IRAK4)	also measured
O=C1CCC(c2ccc(CN3CCC(n4cc(NC(=O)c5coc(-c6ccnc(NCC7CC7)c6)n5)c(C(F)F)n4)CC3)cc2F)C(=O)N1 (stereo not drawn) [GT-04176, 2-(2-((cyclopropylmethyl)amino)pyridin-4-yl)-N-(3-(difluoromethyl)-1-(1-(4-(2,6-dioxopiperidin-3-yl)-3-fluorobenzyl)piperidin-4-yl)-1H-pyrazol-4-yl)oxazole-4-carboxamide]	A (A is defined as 0% ≤ substrate protein remaining % ≤ 80%)	–
O=C1CCN(c2cccc(CN3CCC(n4cc(NC(=O)c5cnn6ccc(N7CCOCC7)nc56)c(C(F)F)n4)CC3)c2)C(=O)N1 [GT-04177, N-(3-(difluoromethyl)-1-(1-(3-(2,4-dioxotetrahydropyrimidin-1(2H)-yl)benzyl)piperidin-4-yl)-1H-pyrazol-4-yl)-5-morpholinopyrazolo[1,5-a]pyrimidine-3-carboxamide]	A (A is defined as 0% ≤ substrate protein remaining % ≤ 80%)	–
COc1cc2nn(C3CCN(Cc4cccc(NC5CCC(=O)NC5=O)c4)CC3)cc2cc1NC(=O)c1cccc(C(F)(F)F)c1 (stereo not drawn) [GT-04749, N-(2-(1-(3-((2,6-dioxopiperidin-3-yl)amino)benzyl)piperidin-4-yl)-6-methoxy-2H-indazol-5-yl)-3-(trifluoromethyl)benzamide]	A (A is defined as 0% ≤ substrate protein remaining % ≤ 80%)	–
COc1cc2nn(C3CCN(Cc4cccc(N5CCC(=O)NC5=O)c4)CC3)cc2cc1NC(=O)c1cccc(C(F)(F)F)c1 [GT-04750, N-(2-(1-(3-(2,4-dioxotetrahydropyrimidin-1(2H)-yl)benzyl)piperidin-4-yl)-6-methoxy-2H-indazol-5-yl)-3-(trifluoromethyl)benzamide]	A (A is defined as 0% ≤ substrate protein remaining % ≤ 80%)	–
COc1cc2nn(C3CCN(Cc4ccc(N5CCC(=O)NC5=O)cc4)CC3)cc2cc1NC(=O)c1cccc(C(F)(F)F)c1 [GT-04752, N-(2-(1-(4-(2,4-dioxotetrahydropyrimidin-1(2H)-yl)benzyl)piperidin-4-yl)-6-methoxy-2H-indazol-5-yl)-3-(trifluoromethyl)benzamide]	A (A is defined as 0% ≤ substrate protein remaining % ≤ 80%)	–
COc1cc2nn(C3CCN(Cc4ccc(N5CCC(=O)NC5=O)cc4F)CC3)cc2cc1NC(=O)c1cccc(C(F)(F)F)c1 [GT-04753, N-(2-(1-(4-(2,4-dioxotetrahydropyrimidin-1(2H)-yl)-2-fluorobenzyl)piperidin-4-yl)-6-methoxy-2H-indazol-5-yl)-3-(trifluoromethyl)benzamide]	A (A is defined as 0% ≤ substrate protein remaining % ≤ 80%)	–
COc1cc2nn(C3CCN(Cc4ccc(C5CCC(=O)NC5=O)cc4)CC3)cc2cc1NC(=O)c1cccc(C(F)(F)F)n1 (stereo not drawn) [GT-04761, N-(2-(1-(4-(2,6-dioxopiperidin-3-yl)benzyl)piperidin-4-yl)-6-methoxy-2H-indazol-5-yl)-6-(trifluoromethyl)picolinamide]	A (A is defined as 0% ≤ substrate protein remaining % ≤ 80%)	–
COc1cc2nn(C3CCN(Cc4cccc(NC5CCC(=O)NC5=O)c4)CC3)cc2cc1NC(=O)c1cccc(C(F)(F)F)n1 (stereo not drawn) [GT-04763, N-(2-(1-(3-((2,6-dioxopiperidin-3-yl)amino)benzyl)piperidin-4-yl)-6-methoxy-2H-indazol-5-yl)-6-(trifluoromethyl)picolinamide]	A (A is defined as 0% ≤ substrate protein remaining % ≤ 80%)	–
COc1cc2nn(C3CCN(Cc4cccc(N5CCC(=O)NC5=O)c4)CC3)cc2cc1NC(=O)c1cccc(C(F)(F)F)n1 [GT-04774, N-(2-(1-(3-(2,4-dioxotetrahydropyrimidin-1(2H)-yl)benzyl)piperidin-4-yl)-6-methoxy-2H-indazol-5-yl)-6-(trifluoromethyl)picolinamide]	A (A is defined as 0% ≤ substrate protein remaining % ≤ 80%)	–
COc1ccc2cn(C3CCN(Cc4ccc(C5CCC(=O)NC5=O)cc4)CC3)nc2c1NC(=O)c1cccc(C(F)(F)F)c1 (stereo not drawn) [GT-04813, N-(2-(1-(4-(2,6-dioxopiperidin-3-yl)benzyl)piperidin-4-yl)-6-methoxy-2H-indazol-7-yl)-3-(trifluoromethyl)benzamide]	A (A is defined as 0% ≤ substrate protein remaining % ≤ 80%)	–
COc1cc2nn(C3CCN(Cc4ccc(N5CCC(=O)NC5=O)nc4)CC3)cc2cc1NC(=O)c1cccc(C(F)(F)F)c1 [GT-04879, N-(2-(1-((6-(2,4-dioxotetrahydropyrimidin-1(2H)-yl)pyridin-3-yl)methyl)piperidin-4-yl)-6-methoxy-2H-indazol-5-yl)-3-(trifluoromethyl)benzamide]	A (A is defined as 0% ≤ substrate protein remaining % ≤ 80%)	–
COc1ccc2cn(C3CCN(Cc4ccc(N5CCC(=O)NC5=O)nc4)CC3)nc2c1NC(=O)c1cccc(C(F)(F)F)c1 [GT-04887, N-(2-(1-((6-(2,4-dioxotetrahydropyrimidin-1(2H)-yl)pyridin-3-yl)methyl)piperidin-4-yl)-6-methoxy-2H-indazol-7-yl)-3-(trifluoromethyl)benzamide]	A (A is defined as 0% ≤ substrate protein remaining % ≤ 80%)	–
Cc1nc2c(F)cc(-c3nc(Nc4ccc(N5CCC(N6CCN(Cc7cncc(N8CCC(=O)NC8=O)c7)CC6)CC5)cn4)ncc3F)cc2n1C(C)C [GT-07488, 1-(5-((4-(1-(6-((5-fluoro-4-(4-fluoro-1-isopropyl-2-methyl-1H-benzo[d]imidazol-6-yl)pyrimidin-2-yl)amino)pyridin-3-yl)piperidin-4-yl)piperazin-1-yl)methyl)pyridin-3-yl)dihydropyrimidine-2,4(1H,3H)-dione]	–	pIC50 (H1975): 6.30 to 7.00; pIC50 (MCF7): 7.00 to 7.30; pIC50 (CCRF-CEM): 6.30 to 7.00; pIC50 (MM.1S): 7.00 to 7.30; inhibition at 0.5 µM ([1]; at 0.5µM, read-out: Inhibition rate (%) at 0.5µM): 53 to 60%; inhibition at 2 µM ([1]; at 2 µM, read-out: Inhibition rate (%) at 2 µM): 80 to 100%
